Measurements reported in patent US20040082588A1, “Methods for treating disorders of calcium homeostasis” (Schering Corporation, priority 2002, published 2004).

Tests used:
Female Rats [1] = test: One-month exploratory nephrotoxicity study in female rats: urine calcium and phosphorus excretion; type: in vivo, rat; conditions: for Mean calcium excretion / Mean phosphorus excretion: female rats, 180 mg/kg daily
Text: (§1) A study was undertaken to assess the potential nephrotoxicity of the compound of Formula 1 in rats. The rats were 6 week old females weighing 120.7 to 173.5 g at dosing initiation.
(§2) The study design is summarized below in Tables 1-3: […]

Female Rats [2] = test: One-month exploratory nephrotoxicity study in female rats: serum PTH; type: in vivo, rat; conditions: for Mean serum PTH: female rats, 180 mg/kg daily
Text: as §1, §2

Female Rats [3] = test: One-month exploratory nephrotoxicity study in female rats: serum ADH; type: in vivo, rat; conditions: for Mean serum ADH: female rats, 180 mg/kg daily
Text: as §1, §2

Female Rats [4] = test: One-month exploratory nephrotoxicity study in female rats: urine volume and osmolality; type: in vivo, rat; conditions: for Mean urine osmolality / Mean urine volume: female rats, 180 mg/kg daily
Text: as §1, §2

rat parathyroid glands = test: Micrographic analysis (light and electron microscopy) of rat parathyroid glands; type: in vivo
Text: Electron photomicrographs of the right parathyroid gland from two control rats sacrificed on Day 13 (Nos. 26F and 29F), two control rats sacrificed on Day 29 (Nos. 39F and 40F) and two Formula 1-dosed rats sacrificed on Day 29 (Nos. 76F and 77F) were examined for ultrastructural changes. […] A single rounded parathyroid epithelial cell in animal No. 77F appeared apoptotic with condensed chromatin and intact mitochondria and contained numerous vesicles similar to those previously described. The apoptotic cell is consistent with the single cell necrosis observed at the light microscopic level.

Ras-3T3 tumors = conditions: mice bearing Ras-3T3 tumors with hypercalcemia (MAH); cited from earlier work
[5] = target: Farnesyl Protein Transferase (FPT) (Homo sapiens, UniProt P49356); conditions: cited from earlier work
[6] = within 6 days of dosing at 180 mg/kg, rats
[7] = electron photomicrographs, dosed rats
[8] = electron photomicrographs, two dosed rats sacrificed on Day 29

NC(=O)N1CCC(CC(=O)N2CCC(C3c4ncc(Br)cc4CCc4cc(Cl)cc(Br)c43)CC2)CC1 (centres unmarked) [Formula 1]
Mean calcium excretion (Female Rats [1]; Day 2, urine): 5.65 mg/kg/24 hours | Mean phosphorus excretion (Female Rats [1]; Day 2, urine): 55.9 mg/kg/24 hours | Mean calcium excretion (Female Rats [1]; Day 6, urine): 33 mg/kg/24 hours | Mean phosphorus excretion (Female Rats [1]; Day 6, urine): 13.5 mg/kg/24 hours | Mean calcium excretion (Female Rats [1]; Day 13, urine): 20.7 mg/kg/24 hours | Mean phosphorus excretion (Female Rats [1]; Day 13, urine): 12.1 mg/kg/24 hours | Mean calcium excretion (Female Rats [1]; Day 29, urine): 19.2 mg/kg/24 hours | Mean phosphorus excretion (Female Rats [1]; Day 29, urine): 7.3 mg/kg/24 hours | calcium excretion in the urine (change vs control) (Female Rats [1]; [6]): increased | phosphorus excretion (change vs control) (Female Rats [1]; [6]): decreased | Mean serum PTH (Female Rats [2]; Day 2): 60 ng/mL | Mean serum PTH (Female Rats [2]; Day 6): 51 ng/mL | Mean serum PTH (Female Rats [2]; Day 13): 68 ng/mL | Mean serum PTH (Female Rats [2]; Day 29): 44 ng/mL | serum PTH (change vs control) (Female Rats [2]; rats dosed at 180 mg/kg): decrease | rats evaluated with lower PTH serum concentrations than the control rats (Female Rats [2]; within 28 days, 180 mg/kg): 5 out of 5 | Mean serum ADH (Female Rats [3]; Day 2): 350 pg/mL | Mean serum ADH (Female Rats [3]; Day 6): 513 pg/mL | Mean serum ADH (Female Rats [3]; Day 13): 547 pg/mL | Mean serum ADH (Female Rats [3]; Day 29, water consumption had increased at this timepoint): 616^1 pg/ml | antidiuretic hormone (ADH) concentrations (change vs control) (Female Rats [3]; rats dosed at 180 mg/kg): increases | Mean urine osmolality (Female Rats [4]; Day 2): 646 mOsm/kg | Mean urine volume (Female Rats [4]; Day 2): 124 ml/kg/24 hours | Mean urine osmolality (Female Rats [4]; Day 6): 646 mOsm/kg | Mean urine volume (Female Rats [4]; Day 6): 195 ml/kg/24 hours | Mean urine osmolality (Female Rats [4]; Day 13): 655 mOsm/kg | Mean urine volume (Female Rats [4]; Day 13): 177 ml/kg/24 hours | Mean urine osmolality (Female Rats [4]; Day 29): 606 mOsm/kg | Mean urine volume (Female Rats [4]; Day 29): 166 ml/kg/24 hours | condition suggested by urine osmolality, urine volume and ADH changes (Female Rats [4]; rats dosed at 180 mg/kg): nephrogenic diabetes insipidus | urine osmolality (change vs control) (Female Rats [4]; rats dosed at 180 mg/kg): Decreases | urine volume (change vs control) (Female Rats [4]; rats dosed at 180 mg/kg): increases | changes indicating chronic stimulation of parathyroid (rough endoplasmic reticulum, Golgi apparatus) (rat parathyroid glands; [7]): no changes indicating chronic stimulation | exhaustion vacuoles in parathyroid cells (rat parathyroid glands; [7]): no evidence of exhaustion vacuoles | Ultrastructure of parathyroid chief cells: cell borders (rat parathyroid glands; [8]): less conspicuous cell borders with fewer, less distinctive cytoplasmic projections | Ultrastructure of parathyroid chief cells: cytoplasm content (rat parathyroid glands; [8]): numerous, generally membrane-bound, vesicles | number of myeloid bodies and fat globules in parathyroid cells (rat parathyroid glands; [8]): minimally increased | Microscopic evaluation of the parathyroid glands (rat parathyroid glands; rats dosed with 180 mg/kg): cytoplasmic vacuolation

COC(=O)[C@H](CCSC)NC(=O)[C@H](/C=C\[C@@H](/C=C/[C@@H](N)CS)C(C)C)Cc1ccccc1 [Formula B-1086]
serum PTHRP levels (Ras-3T3 tumors): reduction | serum calcium (Ras-3T3 tumors): normalization

NC(=O)N1CCC(CC(=O)N2CCC([C@H]3c4ncc(Br)cc4CCc4cc(Cl)cc(Br)c43)CC2)CC1 [SCH66336]
FPT mediated farnesylation of the Ras protein [5]: inhibit
